# Tests used:
# morningglory = assay: Test C postemergence; type: in vivo, Ipomoea coccinea
# In short: (§1)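 Rated visually on 0–100 (100 = complete control) after 13–15 days under glass. Treatments went onto freshly seeded loam/sand soil or onto emerged plants at the 1- to 4-leaf stage, using a surfactant-containing solvent formulation.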
# kochia = assay: Test C postemergence; type: in vivo, Kochia scoparia
# In short: as §1
# pigweed [1] = assay: Test A postemergence; type: in vivo, Amaranthus retroflexus; settings: 0 to 100 scale where 0 is no effect and 100 is complete control
# In short: (§2)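 Pre- and postemergence greenhouse screen. Soil: loam + sand. Spray carrier: solvent mixture, non-phytotoxic, with surfactant. Post timing at 1–2 leaves, height 2–10 cm. Readout: visual injury on a 0–100 scale roughly 10 days after application, untreated plants as reference.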
# barnyardgrass [2] = assay: Test B flooded paddy test; type: in vivo, Echinochloa crus-galli; settings: Flood, 250 g ai/ha, 0 to 100 scale where 0 is no effect and 100 is complete control
# In short: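 Post-emergence paddy-water application at the 2-leaf stage, with 3 cm flood kept for the whole test. Response was judged visually relative to controls after 13 to 15 greenhouse days, 0 indicating no effect and 100 complete control.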
# lambsquarters = assay: Test C preemergence; type: in vivo, Chenopodium album; settings: preemergence
# In short: as §1
# pigweed [3] = assay: Test C postemergence; type: in vivo, Amaranthus retroflexus
# In short: as §1
# wheat, winter = assay: Test C preemergence; type: in vivo, Triticum aestivum; settings: preemergence
# In short: as §1
# Italian ryegrass = assay: Test C postemergence; type: in vivo, Lolium multiflorum
# In short: as §1
# giant foxtail = assay: Test A preemergence; type: in vivo, Setaria faberii; settings: 0 to 100 scale where 0 is no effect and 100 is complete control
# In short: as §2
# barnyardgrass [4] = assay: Test C preemergence; type: in vivo, Echinochloa crus-galli
# In short: as §1
# wheat = assay: Test A postemergence; type: in vivo, Triticum aestivum; settings: 0 to 100 scale where 0 is no effect and 100 is complete control
# In short: as §2
# [5] = 16 g ai/ha, postemergence, 0 is no effect, 100 is complete control
# [6] = 31 g ai/ha, postemergence, visual rating, scale 0 to 100 (0 no effect, 100 complete control), 13 to 15 days
# [7] = 125 g ai/ha, postemergence, visual rating, scale 0 to 100 (0 no effect, 100 complete control)
# [8] = Postemergence, 62 g ai/ha, scale 0 to 100 (0 no effect, 100 complete control)
# [9] = 16 g ai/ha, scale 0 to 100 (0 no effect, 100 complete control)
# [10] = 62 g ai/ha, scale 0 (no effect) to 100 (complete control)
# [11] = 125 g ai/ha, scale 0 (no effect) to 100 (complete control)
structure (smiles),measurement,setting,value
CCCOc1cnn(-c2c(C#N)cccc2Oc2ncc(Cl)cn2)c1 [Compound 150],"Plant response rating (0 to 100), Morningglory",morningglory; [5],40
same,Morningglory plant response rating,morningglory; [6],60
same,"Plant response rating, Morningglory",morningglory; [7],80
same,"Plant response rating, Morningglory",morningglory; [8],65
same,"Plant response rating (0 to 100), Kochia",kochia; [5],50
same,Kochia plant response rating,kochia; [6],55
same,"Plant response rating, Kochia",kochia; [7],85
same,"Plant response rating, Kochia",kochia; [8],55
same,Pigweed plant response rating,pigweed [1]; 125 g ai/ha,100
same,"Plant response rating, Pigweed",pigweed [1]; 500 g ai/ha,100
same,"Plant response rating, Barnyardgrass",barnyardgrass [2],0
same,Lambsquarters plant response rating,lambsquarters; [9],10
same,Lambsquarters plant response rating,lambsquarters; [10],80
same,Lambsquarters plant response rating,lambsquarters; [11],100
same,"Plant response rating (0 to 100), Pigweed",pigweed [3]; [5],40
same,Pigweed plant response rating,pigweed [3]; [6],55
same,"Plant response rating, Pigweed",pigweed [3]; [7],65
same,"Plant response rating, Pigweed",pigweed [3]; [8],55
same,Wheat plant response rating,"wheat, winter; [9]",0
same,Wheat plant response rating,"wheat, winter; [10]",5
same,Wheat plant response rating,"wheat, winter; [11]",5
same,"Plant response rating (0 to 100), Ryegrass, Italian",Italian ryegrass; [5],0
same,"Ryegrass, Italian plant response rating",Italian ryegrass; [6],0
same,"Plant response rating, Ryegrass, Italian",Italian ryegrass; [7],5
same,"Plant response rating, Ryegrass, Italian",Italian ryegrass; [8],5
same,"Plant response rating, Foxtail, Giant",giant foxtail; 125 g ai/ha,100
same,"Foxtail, Giant plant response rating",giant foxtail; 500 g ai/ha,100
same,Barnyardgrass plant response rating,"barnyardgrass [4]; 16 g ai/ha, preemergence, scale 0 to 100 (0 no effect, 100 complete control)",5
same,Barnyardgrass plant response rating,"barnyardgrass [4]; 62 g ai/ha, preemergence, scale 0 (no effect) to 100 (complete control)",65
same,Barnyardgrass plant response rating,"barnyardgrass [4]; 125 g ai/ha, preemergence, scale 0 (no effect) to 100 (complete control)",80
same,"Plant response rating, Barnyardgrass","barnyardgrass [4]; Preemergence, 31 g ai/ha, scale 0 to 100, 0 no effect, 100 complete control",20
same,Wheat plant response rating,wheat; 125 g ai/ha,30
same,"Plant response rating, Wheat",wheat; 500 g ai/ha,90
"FC(F)(F)COc1cnn(-c2ccccc2Oc2ncc(Cl)cn2)c1 [Compound 138, 5-chloro-2-[2-[4-(2,2,2-trifluoroethoxy)-1H-pyrazol-1-yl]phenoxy]pyrimidine]",pest or weed control at 16 g/ha,"morningglory; Ipomoea, post-emergence, 16 g ai/ha, postemergence, 0 is no effect, 100 is complete control, read-out: Plant response rating (0 to 100), Morningglory",65%
same,pest or weed control at 125 g/ha,"morningglory; Ipomoea, post-emergence, 125 g ai/ha, postemergence, visual rating, scale 0 to 100 (0 no effect, 100 complete control), read-out: Plant response rating, Morningglory",85%
same,pest or weed control at 62 g/ha,"morningglory; Ipomoea, post-emergence, Postemergence, 62 g ai/ha, scale 0 to 100 (0 no effect, 100 complete control), read-out: Plant response rating, Morningglory",65%
same,pest or weed control at 16 g/ha,"kochia; Bassia scoparia, post-emergence, 16 g ai/ha, postemergence, 0 is no effect, 100 is complete control, read-out: Plant response rating (0 to 100), Kochia",80%
same,pest or weed control at 125 g/ha,"kochia; Bassia scoparia, post-emergence, 125 g ai/ha, postemergence, visual rating, scale 0 to 100 (0 no effect, 100 complete control), read-out: Plant response rating, Kochia",95%
same,pest or weed control at 62 g/ha,"kochia; Bassia scoparia, post-emergence, Postemergence, 62 g ai/ha, scale 0 to 100 (0 no effect, 100 complete control), read-out: Plant response rating, Kochia",95%
same,pest or weed control at 500 g/ha,"pigweed [1]; Amaranthus retroflexus, post-emergence, 500 g ai/ha, read-out: Plant response rating, Pigweed",100%
same,pest or weed control at 125 g/ha,"pigweed [1]; Amaranthus retroflexus, post-emergence, 240 h, 125 g ai/ha, read-out: Pigweed plant response rating",100%
same,pest or weed control at 250 g/ha,"barnyardgrass [2]; Echinochloa crus-galli, read-out: Plant response rating, Barnyardgrass",0%
same,pest or weed control at 16 g/ha,"lambsquarters; Chenopodium album, pre-emergence, 16 g ai/ha, scale 0 to 100 (0 no effect, 100 complete control), read-out: Lambsquarters plant response rating",100%
same,pest or weed control at 62 g/ha,"lambsquarters; Chenopodium album, pre-emergence, 62 g ai/ha, scale 0 (no effect) to 100 (complete control), read-out: Lambsquarters plant response rating",100%
same,pest or weed control at 125 g/ha,"lambsquarters; Chenopodium album, pre-emergence, 125 g ai/ha, scale 0 (no effect) to 100 (complete control), read-out: Lambsquarters plant response rating",100%
same,pest or weed control at 16 g/ha,"pigweed [3]; Amaranthus retroflexus, post-emergence, 16 g ai/ha, postemergence, 0 is no effect, 100 is complete control, read-out: Plant response rating (0 to 100), Pigweed",60%
same,pest or weed control at 125 g/ha,"pigweed [3]; Amaranthus retroflexus, post-emergence, 125 g ai/ha, postemergence, visual rating, scale 0 to 100 (0 no effect, 100 complete control), read-out: Plant response rating, Pigweed",80%
same,pest or weed control at 62 g/ha,"pigweed [3]; Amaranthus retroflexus, post-emergence, Postemergence, 62 g ai/ha, scale 0 to 100 (0 no effect, 100 complete control), read-out: Plant response rating, Pigweed",80%
same,plant injury at 16 g/ha,"wheat, winter; Triticum aestivum, pre-emergence, 16 g ai/ha, scale 0 to 100 (0 no effect, 100 complete control), read-out: Wheat plant response rating",0%
same,plant injury at 62 g/ha,"wheat, winter; Triticum aestivum, pre-emergence, 62 g ai/ha, scale 0 (no effect) to 100 (complete control), read-out: Wheat plant response rating",5%
same,plant injury at 125 g/ha,"wheat, winter; Triticum aestivum, pre-emergence, 125 g ai/ha, scale 0 (no effect) to 100 (complete control), read-out: Wheat plant response rating",5%
same,pest or weed control at 16 g/ha,"Italian ryegrass; Lolium multiflorum, post-emergence, 16 g ai/ha, postemergence, 0 is no effect, 100 is complete control, read-out: Plant response rating (0 to 100), Ryegrass, Italian",0%
same,pest or weed control at 125 g/ha,"Italian ryegrass; Lolium multiflorum, post-emergence, 125 g ai/ha, postemergence, visual rating, scale 0 to 100 (0 no effect, 100 complete control), read-out: Plant response rating, Ryegrass, Italian",5%
same,pest or weed control at 62 g/ha,"Italian ryegrass; Lolium multiflorum, post-emergence, Postemergence, 62 g ai/ha, scale 0 to 100 (0 no effect, 100 complete control), read-out: Plant response rating, Ryegrass, Italian",0%
same,pest or weed control at 125 g/ha,"giant foxtail; Setaria faberi, pre-emergence, 240 h, 125 g ai/ha, read-out: Plant response rating, Foxtail, Giant",90%
same,pest or weed control at 500 g/ha,"giant foxtail; Setaria faberi, pre-emergence, 240 h, 500 g ai/ha, read-out: Foxtail, Giant plant response rating",100%
same,pest or weed control at 16 g/ha,"barnyardgrass [4]; Echinochloa crus-galli, pre-emergence, 16 g ai/ha, preemergence, scale 0 to 100 (0 no effect, 100 complete control), read-out: Barnyardgrass plant response rating",10%
same,pest or weed control at 62 g/ha,"barnyardgrass [4]; Echinochloa crus-galli, pre-emergence, 62 g ai/ha, preemergence, scale 0 (no effect) to 100 (complete control), read-out: Barnyardgrass plant response rating",65%
same,pest or weed control at 125 g/ha,"barnyardgrass [4]; Echinochloa crus-galli, pre-emergence, 125 g ai/ha, preemergence, scale 0 (no effect) to 100 (complete control), read-out: Barnyardgrass plant response rating",95%
same,pest or weed control at 31 g/ha,"barnyardgrass [4]; Echinochloa crus-galli, pre-emergence, Preemergence, 31 g ai/ha, scale 0 to 100, 0 no effect, 100 complete control, read-out: Plant response rating, Barnyardgrass",25%
same,plant injury at 125 g/ha,"wheat; Triticum aestivum, post-emergence, 240 h, 125 g ai/ha, read-out: Wheat plant response rating",50%
same,plant injury at 500 g/ha,"wheat; Triticum aestivum, post-emergence, 240 h, 500 g ai/ha, read-out: Plant response rating, Wheat",90%

# Reference: US9695155B2, “Herbicidal substituted pyrimidinyloxy benzene compounds” (E. I. DU PONT DE NEMOURS AND COMPANY, priority 2013, dated 2017)
